Patent publication US20210361566A1, “FORMULATIONS OF 5-HYDROXY TRYPTOPHAN (5-HTP) FOR BETTER BIOAVAILABILITY FOR VARIOUS INDICATIONS” (National University of Singapore, priority 2018, published 2021)

Experiments:
[1] = mice; cited from earlier work
[2] = Water solubility of 5-HTP free base; format: physicochemical; conditions: free base form
Protocol: (§1) 5-HTP dosing: The free base form of 5-HTP was used (5-HTP has a water solubility of >10 mg/mL).

[3] = Release rate calculation Rinput=(Css×Vd×kel)/F, Scenario 1 (5-HTP without peripheral decarboxylase inhibitor); design: species or system human
Text: As calculated above, the relative upper GI tract:colon bioavailability was 20% (corresponding to an absolute colonic bioavailability of 4%). Based on the above, according to general teachings in the field of sustained-release drug delivery (Sutton S C. The use of gastrointestinal intubation studies for controlled release development. Br J Clin Pharmacol. 2009 September; 68[3]: 342-54) it is concluded that gastroretentive technologies are needed in order to achieve a desirable extended release profile of 5-HTP together with a desirable sustained and therapeutically active 5-HTP plasma level profile. Further, the determination of the oral bioavailability (Fpo) enables computation of the delivery rate of 5-HTP needed from the dosage form to achieve a given plasma level of 5-HTP at steady state. Moreover, computation of the resultant plasma levels of 5-HTP can be done for embodiments where a peripheral decarboxylase inhibitor (with different levels of effects on 5-HTP bioavailability and elimination half-life) is included in the dosage form.
The desired release rate profile was calculated as follows, for a dosage form disclosed in the present invention when administering 5-HTP without a peripheral decarboxylase inhibitor:
Substituting, we get Rinput=˜25 mg/hr, to achieve average steady-state plasma concentrations of 5-HTP of 1 mg/L (1000 ng/ml).

[4] = co-administration of 5-HTP and a peripheral decarboxylase inhibitor, in some cases; cited from earlier work
[5] = Absolute and regional intestinal bioavailability of 5-HTP in humans (oral, colonic, intravenous dosing; plasma LC-MS); format: in vivo; conditions: both sexes, other: colonic (by colonoscopy), human, colonic 200 mg vs IV 50 mg, read-out: absolute bioavailability (F), colonic dosing
Protocol: Determination of absolute and regional intestinal bioavailability of 5-HTP in humans.
as §1
Colonic: 5-HTP free base saline solution 200 mg.
Intravenous: 5-HTP free base saline solution 50 mg.
Oral/Upper GI: Two 5-HTP gelatin tablets of 100 mg 5-HTP free base (200 mg total dose).
Subjects: Healthy male and female volunteers aged 18 to 65 years with a body mass index (BMI) of 19 to 28 were eligible for the study. Subjects were admitted to the investigational medical unit (IMU) 2 h before 5-HTP administration and remained at the IMU for 24 h following, for blood sampling and safety assessment. […]
Plasma samples analysis: Plasma samples were stored at −80° C. until analysis. 5-HTP and the metabolite 5-hydroxyindole-acetic-acid (5-HIAA) were quantified by liquid chromatography with mass-spectrometry detection.
Data analysis: The PK data were analyzed using noncompartmental (NCA) and compartmental (mixed effects) mathematical modelling approaches, to calculate area 5-HTP plasma under the curve (AUC) for each subject for each 5-HTP administration.
Results: The human bioavailability of 5-HTP via the various routes of administration above was established in human subjects by administering 5-HTP through these various routes and quantifying the resultant 5-HTP plasma levels at various time points. […]

- solubility [2]: > 10000 µg/mL
- Rinput, release rate of 5-HTP needed for average steady-state plasma concentration of 1 mg/L (1000 ng/ml) ([3]; Scenario 1: F ~0.2 oral, Vd ~10 L, kel 0.462 h^−1, no peripheral decarboxylase inhibitor): ~25 mg/h
- kel, elimination rate constant ([3]; calculated from plasma half-life of 1.5 hrs): 0.462 h⁻¹
- bioavailability [5]: 4%
SMILES: N[C@@H](Cc1c[nH]c2ccc(O)cc12)C(=O)O [5-HTP, 5-hydroxytryptophan]
- absorption in the colon [1]: very effectively absorbed
- increase of plasma 5-HTP levels by co-administration of a peripheral decarboxylase inhibitor [4]: one-fold to about fifteen-fold
